Data on 86 molecules can be found in a flash point compilation (Sun et al. 2020).

Where “and” joins values, the source holds several entries; their conditions need not be identical. Equal entries are not always repeated.

Assay in series [1]: not given
This is another data set of the same source.

Assay in series [2]: not given
The source holds these as a separate data set.

Assay in series [3]: not given
The source holds these as a separate data set.

Assay in series [4]: not given
This is another data set of the same source.

Consider `C[Si]1(C)CCCCO1` [1,1-Dimethyl-1-sila-2-oxacyclohexane], for which the flash point came to 14.00 °C.
Take `COCCOCCOCCOC` [1,2-bis(2-methoxyethoxy)ethane]: the flash point in series [1] amounted to 113.00 °C.
Same read-out and setting: the value for `COc1ccccc1OC` [1,2-dimethoxybenzene] was 72.00 °C.
In the case of `C=C[Si](C)(C)N[Si](C)(C)C=C` [1,3-Divinyltetramethyldisilazane], the flash point was 34.00 °C.
With `C1COCCO1` [1,4-dioxane], the flash point in series [1] was found to be 18.33 °C; in series [2] it was 12.00 °C.
In series [1], `CC(=O)c1ccccn1` [1-(2-pyridyl)ethanone] displayed a flash point of 76.00 °C.
`CCCCOCCOCCOCCCC` [1-[2-(2-butoxyethoxy)ethoxy]butane]: the flash point in series [1] worked out at 101.00 °C; in series [2] it was 118.00 °C.
In series [1], `CC(Cl)OC(C)Cl` (centres undefined) [1-chloro-1-(1-chloroethoxy)ethane] gave a flash point of 55.00 °C.
Same read-out and setting: as for `ClCCOCCCl` [1-chloro-2-(2-chloroethoxy)ethane], the figure is 55.00 °C; as for `COCCCl` [1-chloro-2-methoxyethane], 15.00 °C; as for `Clc1ccc(Oc2ccccc2)cc1` [1-chloro-4-(phenoxy)benzene], 113.00 °C.
Still for that read-out and setting: as for `CC(O)CCl` (centres undefined) [1-chloropropan-2-ol], the figure is 51.00 °C; as for `CC(C)CCOCCC(C)C` [1-isopentyloxy-3-methylbutane], 46.00 °C.
On the same count and under the same terms, the value for `COCC(C)O` (centres undefined) [1-methoxypropan-2-ol] was 33.00 °C.
For `OCC(CO)(CO)CO` [2,2-bis(hydroxymethyl)propane-1,3-diol], the flash point in series [1] was found to be 240.00 °C.
As for `CCC(CC)(CO)CO` [2,2-diethylpropane-1,3-diol], the flash point in series [1] turned out to be 107.00 °C.
In turn, `CC(C)C(C)C(C)CO` (centres undefined) [2,3,4-trimethylpentan-1-ol] returned a flash point in series [1] of 60.00 °C.
The molecule `CC(C)(C)c1cccc(C(C)(C)C)n1` [2,6-ditert-butylpyridine] showed a flash point in series [1] of 72.00 °C.
The same measure, in the same setting: as for `OCCOCCO` [2-(2-hydroxyethoxy)ethanol], the figure is 138.33 °C and 143.00 °C.
For the molecule `CCCCOCC1CO1` (centres undefined) [2-(butoxymethyl)oxirane], the results for the flash point in series [1] and in series [2] were 41.00 °C and 54.00 °C, respectively.
In series [1], `CC(CO)(CO)CO` [2-(hydroxymethyl)-2-methylpropane-1,3-diol] returned a flash point of 160.00 °C.
The same measure, in the same setting: the value for `c1ccc(OCC2CO2)cc1` (centres undefined) [2-(phenoxymethyl)oxirane] was 115.00 °C.
`C=C(CCl)C[Si](C)(C)C` [2-Chloromethyl-3-trimethylsilyl-1-propene]: the flash point amounted to 43.00 °C.
For the molecule `OCCOCCOCCO` [2-[2-(2-hydroxyethoxy)ethoxy]ethanol], in series [1], the flash point worked out at 162.78 °C.
On the same count and under the same terms, the value for `CCCCC(CC)(CO)CO` [2-butyl-2-ethylpropane-1,3-diol] was 113.00 °C.
For the molecule `Nc1ccccc1Cl` [2-chloroaniline], the flash point in series [1] was determined as 98.00 °C.
Consider `Clc1ccccn1` [2-chloropyridine], for which the values for the flash point in series [1] and in series [3] were 64.00 °C and 66 °C, respectively.
As for `CCN(CC)CCO` [2-diethylaminoethanol], the flash point in series [1] came to 51.50 °C.
Take `CCC(CC)CO` [2-ethylbutan-1-ol]: the flash point in series [1] turned out to be 58.33 °C; in series [2], 53.00 °C.
In turn, `OCc1ccco1` [2-furylmethanol] had a flash point in series [1] of 83.33 °C.
Turning to `CCC(C)(C)O` [2-methylbutan-2-ol], the flash point was determined as 20.00 °C in series [1] and 19.00 °C in series [2].
The molecule `CC(C)(C)CCO` [3,3-dimethylbutan-1-ol] returned a flash point in series [1] of 29.00 °C.
Regarding `C[Si](Cl)(Cl)CCCCl` [3-Chloropropylmethyldichlorosilane], the flash point turned out to be 86.00 °C.
On to `Nc1cccc(Cl)c1` [3-chloroaniline], for which, in series [1], the flash point is 118.00 °C.
Still for that read-out and setting: the value for `CCCCC(C)(O)CC` (centres undefined) [3-methylheptan-3-ol] was 54.00 °C.
On the same count and under the same terms, as for `C=CC1CC=CCC1` (centres undefined) [4-vinylcyclohexene], the figure is 21.00 °C; as for `CCC(C)CC(O)CC` (centres undefined) [5-methylheptan-3-ol], 54.00 °C.
On the same count and under the same terms, as for `C/C=C\C` [(z)-but-2-ene], the figure is -73.00 °C.
Consider `C[Si](C)(C)CBr` [Bromomethyltrimethylsilane], for which the flash point is 16.00 °C.
On the same count and under the same terms, as for `CCO[Si](C)(C)CCl` [Chloromethyldimethylethoxysilane], the figure is 26.00 °C; as for `C[Si](Cl)(Cl)CCC#N` [Cyanoethylmethyldichlorosilane], 60.00 °C.
For `Cl[SiH](Cl)C1CCCC1` [Cyclopentyldichlorosilane], the flash point is 43.00 °C.
Same read-out and setting: as for `Cl[Si](Cl)(Cl)C1CCCC1` [Cyclopentyltrichlorosilane], the figure is 77.00 °C; as for `C[Si](C)(C)O[Si](C)(C)O[Si](C)(C)O[Si](C)(C)C` [Decamethyltetrasiloxane], 62.00 °C.
On the same count and under the same terms, the value for `C[Si](Cl)(Cl)C(Cl)Cl` [Dichloromethylmethyldichlorosilane] was 28.00 °C.
Same read-out and setting: as for `CC[Si](C)(Cl)CC` [Diethylmethylchlorosilane], the figure is 15.00 °C; as for `CC[SiH2]CC` [Diethylsilane], -20.00 °C; as for `C[SiH](C)c1c(F)c(F)c(F)c(F)c1F` [Dimethyl(pentafluorophenyl) silane], 40.00 °C.
The molecule `C[SiH](C)Cl` [Dimethylchlorosilane] gave a flash point of -28.00 °C.
The molecule `CCO[Si](C)(C)OCC` [Dimethyldiethoxysilane] came in with a flash point of 11.00 °C.
Same read-out and setting: as for `C=C[Si](C)(C)C=C` [Divinyldimethylsilane], the figure is 8.00 °C; as for `CCO[Si](C)(C)C` [Ethoxytrimethylsilane], -27.00 °C.
Same read-out and setting: as for `CC[Si](Cl)(Cl)Cl` [Ethyltrichlorosilane], the figure is -10.00 °C; as for `CC[Si](OC)(OC)OC` [Ethyltrimethoxysilane], 27.00 °C.
Molecule `CN([Si](C)(C)C)[Si](C)(C)C` [Heptamethyldisilazane] gave a flash point of 27.00 °C.
Same read-out and setting: as for `C[Si](C)(C)O[Si](C)(C)O[Si](C)(C)O[Si](C)(C)O[Si](C)(C)O[Si](C)(C)O[Si](C)(C)C` [Hexadecamethylheptasiloxane], the figure is 133.00 °C; as for `C[Si](C)(C)O[SiH2]O[Si](C)(C)C` [Hexamethyltrisiloxane], 20.00 °C; as for `CCCCCC[SiH](Cl)Cl` [Hexyldichlorosilane], 64.00 °C.
For `CCCCCC[SiH3]` [Hexylsilane], the flash point stood at 12.00 °C.
In the case of `CCCCCC[Si](OC)(OC)OC` [Hexyltrimethoxysilane], the flash point was found to be 62.00 °C.
The molecule `C[Si](C)(C)I` [Iodotrimethylsilane] showed a flash point of 15.00 °C.
Still for that read-out and setting: as for `C[Si](Cl)(c1ccccc1)c1ccccc1` [Methyldiphenylchlorosilane], the figure is 138.00 °C; as for `CC(=O)O[Si](C)(OC(C)=O)OC(C)=O` [Methyltriacetoxysilane], 85.00 °C.
With `CO[Si](C)(OC)OC` [Methyltrimethoxysilane], the flash point came out at 11.00 °C.
Turning to `CN(C)C=O` [N,N-dimethylformamide], the flash point in series [1] stood at 57.00 °C; in series [2], 67.00 °C.
For the molecule `CCNCC` [N-ethylethanamine], the flash point is -28.00 °C in series [1] and -29.00 °C in series [2].
As to `C[Si](C)(C)O[Si](C)(C)O[Si](C)(C)O[Si](C)(C)O[Si](C)(C)O[Si](C)(C)O[Si](C)(C)O[Si](C)(C)C` [Octadecamethyloctasiloxane], the flash point was found to be 144.00 °C.
The molecule `C[Si]1(C)O[Si](C)(C)O[Si](C)(C)O[Si](C)(C)O1` [Octamethylcyclotetrasiloxane] came in with a flash point of 57.00 °C.
In series [1], `OCc1ccc(CO)cc1` [[4-(hydroxymethyl)phenyl]methanol] had a flash point of 187.80 °C.
On to `C=CCOc1ccccc1` [allyloxybenzene], for which, in series [1], the flash point amounted to 62.00 °C.
On to `CCC(C)O` (centres undefined) [butan-2-ol], for which the figures for the flash point in series [1] and in series [2] were 22.22 °C and 24.00 °C, respectively.
On to `CC(O)CCO` (centres undefined) [butane-1,3-diol], for which the flash point in series [1] amounted to 108.89 °C.
Same read-out and setting: the value for `OCCCCO` [butane-1,4-diol] was 121.11 °C.
Consider `C1=CCCCC1` [cyclohexene], for which the flash point was -30.00 °C in series [1], -12 °C in series [3] and -17 °C in series [4].
Take `CCCCCCCCCCO` [decan-1-ol]: the flash point in series [1] was 104.44 °C; in series [2], 82.00 °C.
`C=COCC` [ethoxyethylene] showed a flash point in series [1] of -46.00 °C.
The same measure, in the same setting: as for `CCCCCC(C)N` (centres undefined) [heptan-2-amine], the figure is 54.00 °C.
For the molecule `CCCCCCO` [hexan-1-ol], the results for the flash point in series [1] and in series [2] were 73.89 °C and 63.00 °C, respectively.
`C=CC(O)CCCCC` (centres undefined) [oct-1-en-3-ol]: in series [1], the flash point was 68.00 °C.
On to `CCCCCCCCO` [octan-1-ol], for which the figures for the flash point in series [1] and in series [2] were 90.56 °C and 81.00 °C, respectively.
Taken in the same sequence, the figures for `CCCCCCC(C)O` (centres undefined) [octan-2-ol] were 85.00 °C and 76.00 °C.
In the same order, the values of `CCCC(C)O` (centres undefined) [pentan-2-ol] are 40.56 °C and 35.00 °C.
In series [1], `OCCCCCO` [pentane-1,5-diol] registered a flash point of 129.44 °C.
Still for that read-out and setting: as for `OCCCO` [propane-1,3-diol], the figure is 79.00 °C.
`CCCCCCCCCCCCCCO` [tetradecan-1-ol]: the flash point in series [1] was 145.00 °C; in series [2], 141.00 °C.
In the same order, the values of `CCCCCCCCCCCCCO` [tridecan-1-ol] are 116.00 °C and 121.00 °C.
